How the values were obtained:
Nf2−/− SC4 cells = assay: Growth inhibition of NF2 deficient cells (CellTiter-Glo); format: cell-based, mouse; details: 1 uM concentration for 72 hours, FIG. 4
Procedure: (§1) NF2 deficient cell lines were cultured in the appropriate medium. Once enough cells have propagated, plates of all adherent lines were seeded at 5,000-10,000 cells/well (depending on cell line) in a total volume of 50 μL, and plates of all suspension lines at 10,000-20,000 cells/well (depending on cell line) in a total volume of 50 μL. Plates were placed in a humidified cell culture incubator overnight to allow adherent cells to attach.
(§2) 10 mM stocks of each PAK inhibitor compound in DMSO were prepared. Dilutions were performed with media to provide 1% DMSO 2× stock solutions of each PAK inhibitor compound.
50 μL of all PAK inhibitor compound 2× stocks were added to appropriate wells already containing 50 μL of cells and medium to expose cells to the final concentrations of compounds required. 50 μL of media was added to media and cell control wells and 50 μL of mix to vehicle control wells. At the same time as drug exposure, a CTG (CellTiter-Glo Assay) assay was performed on the 0 hr plate to obtain a 0 hr count. […]
At the end of the 72 hour exposure period, plates were removed for a CTG assay from 37° C., 5% CO2 incubator and place on the bench at room temperature for 30 mins. […] Luminescence for each well was determined.
Growth inhibition percent was calculated using the following equation: (Growth %=(Sample Value−T0Ave)/(Max−T0Ave)*100). […]

[1] = tested on: NF2−/− mesothelioma cells (NCI-H226); assay: as above; format: cell-based; details: 0 μM-30 μM, 72 hours, FIG. 7
Procedure: as §1, §2
(§3) 50 μL of all PAK inhibitor compound 2× stocks were added to appropriate wells already containing 50 μL of cells and medium to expose cells to the final concentrations of compounds required. 50 μL of media was added to media and cell control wells and 50 μL of mix to vehicle control wells. At the same time as drug exposure, a CTG (CellTiter-Glo Assay) assay was performed on the 0 hr plate to obtain a 0 hr count. Cells were exposed to PAK inhibitor compounds or a DMSO control for 72 hours. Following the 72 hour exposure period, all remaining plates were assayed using CTG.
(§4) At the end of the 72 hour exposure period, plates were removed for a CTG assay from 37° C., 5% CO2 incubator and place on the bench at room temperature for 30 mins. 100 μL CTG reagent was added to each well, mixed for 2 minutes, followed by a further 10 minute incubation at room temperature. Luminescence for each well was determined.
(§5) Growth inhibition percent was calculated using the following equation: (Growth %=(Sample Value−T0Ave)/(Max−T0Ave)*100).
NF2^−/− mesothelioma cells (e.g., NCI-H226 cells) were treated with varying concentrations of a PAK inhibitor compound disclosed in Examples 33, 84, or 122.

EBC-1 cells = assay: Growth inhibition of PAK1 amplified NSCLC cells (CellTiter-Glo); format: cell-based; details: 0 μM-30 μM, 72 hours, FIG. 8
Procedure: as §1, with “The PAK1 amplified” for “NF2 deficient”
as §2
as §3, with “50” for “50 μL of all PAK inhibitor compound 2× stocks were added to appropriate wells already containing 50 μL of cells and medium to expose cells to the final concentrations of compounds required. 50”
as §4, §5

NCI-H520 cells = assay: as above; format: cell-based; details: 0 μM-30 μM, 72 hours, FIG. 9
Procedure: as §1, with “The PAK1 amplified” for “NF2 deficient”
as §2
as §3, with “50” for “50 μL of all PAK inhibitor compound 2× stocks were added to appropriate wells already containing 50 μL of cells and medium to expose cells to the final concentrations of compounds required. 50”
as §4, §5

SK-MES-1 cells = assay: as above; format: cell-based; details: 0 μM-30 μM, 72 hours, FIG. 10
Procedure: as §1, with “The PAK1 amplified” for “NF2 deficient”
as §2
as §3, with “50” for “50 μL of all PAK inhibitor compound 2× stocks were added to appropriate wells already containing 50 μL of cells and medium to expose cells to the final concentrations of compounds required. 50”
as §4, §5

[2] = tested on: Nf2−/− SC4 cells transplanted into the sciatic nerve sheath of NOD/SCID mice; assay: Orthotopic NF2 deficient schwannoma mouse model, tumor weight; format: in vivo; details: intraneural Nf2−/− cells, FIG. 5
Excerpt: The NF2 protein is absent in ˜100% of sporadic schwannomas. Thus, an NF2 deficient-schwanoma mouse model was generated and used to evaluate treatment of sporadic schwannomas with a PAK inhibitor compound disclosed herein.
Murine Nf2^−/− cells may be generated by various means. For example, NF2^−/− cells may be generated by administering an shRNA or siRNA targeting an Nf2 gene, thereby disrupting the Nf2 gene. In another example, NF2^−/− cells may be generated by using a Cre recombinase.
Nf2^−/− SC4 cells may be generated by using a Cre recombinase. Pure populations of embryonic SC4 cells were isolated from Nf 2^loxP/loxP− mice at about embryonic day 13.5. […]
Nf2^−/− cells (e.g., Nf2^−/− SC4 control cells) were transduced by lentiviruses carrying pLuc-mCherry and sorted by FACS. […] Tumor progression was monitored weekly by bioluminescence imaging (BLI) according to the manufacturer's instructions on an IVIS-200 system. The mice were sacrificed and the tumors from the vehicle control treated and PAK inhibitor treated mice were measured.
NF2^−/− cells (e.g., Nf2^−/− SC4 control cells) were transduced by lentiviruses carrying pLuc-mCherry and sorted by FACS. […] Tumor progression was monitored weekly by bioluminescence imaging (BLI) according to the manufacturer's instructions on an IVIS-200 system. […]
At various time points, treatment efficacy was determined. […]

SMILES: CCn1c(=O)c(-c2ccc(-c3cccnc3F)cc2Cl)cc2cnc(Nc3ccc(N4CCN(C)CC4)cc3)nc21 [Example 33]
- cell number compared to DMSO control treated cells (Nf2−/− SC4 cells): reduction in cell number
- growth (%) with increasing concentration [1]: the growth (%) of the cells reduced
- growth (%) with increasing concentration (EBC-1 cells): the growth (%) decreased
- growth (%) with increasing concentration (NCI-H520 cells): the growth (%) decreased
- growth (%) with increasing concentration (SK-MES-1 cells): the growth (%) decreased

SMILES: CCn1c(=O)c(-c2ccc(-c3cncs3)cc2Cl)cc2cnc(Nc3ccc(N4CCN(C)CC4)cc3)nc21 [Example 84]
- average tumor weight versus vehicle control treated mice [2]: less than the average tumor weight of the vehicle control treated mice
- cell number compared to DMSO control treated cells (Nf2−/− SC4 cells): reduction in cell number
- growth (%) with increasing concentration [1]: the growth (%) of the cells reduced

Reference: patent publication US20140163026A1, “8-ETHYL-6-(ARYL)PYRIDO[2,3-D]PYRIMIDIN-7(8H)-ONES FOR THE TREATMENT OF NERVOUS SYSTEM DISORDERS AND CANCER” (Afraxis Holdings, Inc., priority 2011, published 2014)
